In patent publication US6627580B2, “Chelating agents and their manganic chelates” (Akzo Nobel N.V., priority 1997, dated 2003):

How the values were obtained:
[1] = Comparative test with a reduced chelant (manganic chelate of borohydride-reduced chelant); type: physicochemical
Method: A solution of the chelant according to Example 1 was adjusted to a concentration of 10 mmoles/L and a pH of 5. Sodium borohydride was added at 5 minute intervals until the yellow salicylimine colour disappeared. The pH was then adjusted to 8, and the manganic chelate was generated as described in Example 2 for a final pH of 8.

[2] = Preference of the new chelant for manganic ions over ferric ions (citrate solutions, pH 7.8); type: physicochemical; conditions: for colour developed: pH 7.8
Method: In order to show the preference of the new chelants for manganic ions over ferric ions, stable, slightly alkaline solutions of these ions were prepared by chelation with two moies of citric acid. Both solutions were adjusted with sodium hydroxide to a pH of 7.8 at a concentration of 0.001 mmole/ml of manganese and iron, respectively. Three experiments were made for comparison:
a) of each solution 10 ml (0.01 mmole) was mixed, and 0.25 g of the 0.04 molar chelate (or ligand) solution from. Example 1 […] was added.
b) 10 ml of manganic citrate solution was mixed with 0.25 g of the chelate solution.
c) 10 ml of the ferric citrate solution was mixed with 0.25 g of the chelate solution.

[3] = Ahrland et al. 1990, cited from earlier work
[4] = Soil tests with the new manganic chelate and other manganese sources; type: physicochemical
Method: A soil sample was taken from a sugar-beet field in Helsingborg, Sweden. It was sifted and homogenised and analysed by a certified agricultural laboratory by so-called ICP after extraction with dilute acetic of EDTA.
35 g portions of the slightly moist soil were transferred to 250 ml glass bottles together with 120 ml of dilute solutions containing about 30 ppm manganese. The solutions to be tested were made from:
The bottles were rotated in a tumbling device at about 1 revolution per second for a period of 19 days. […] The clear liquid samples were analysed by ICP.

[5] = Shaking test with calcium carbonate; type: physicochemical
Source text: The test in Example 6 was repeated with the new manganic chelate but with analytical grade calcium carbonate instead of soil. The pH of the suspension was 8.5.

[6] = Hydrolytic stability of the new manganic chelate (step-wise alkalisation with dilute sodium hydroxide); type: physicochemical
Source text: The manganic chelate solution from Example 2 was alkalised step-wise with dilute sodium hydroxide. Samples were taken at various pH and set aside for later inspection.

[7] = Formation and hydrolytic stability of a ferric chelate; type: physicochemical; conditions: for Appearance of ferric chelate solution: colour observed during the next 1-2 hours
Method: 2 ml of the chelate solution from Example 1 (0.08 mmole) was diluted with 15 ml water and 1 ml of 0.05 molar ferric chloride solution was added dropwise. The pH was brought to 7 with dilute sodium hydroxide, giving a dark wine red solution. The solution was then gradually alkalised by the addition of dilute sodium hydroxide, and the colour was observed during the next 1-2 hours.

[8] = Tropolone chelant with molar equivalents of manganic and ferric ions; type: physicochemical; conditions: pH 9
[9] = pH stability of manganic and ferric chelates of the tropolone chelant; type: physicochemical
Method: The manganic chelate of the new chelant was prepared in analogy with Example 2 and formed a brown solution stable at pH 10.
With ferric iron ions the chelant formed a red solution at pH 5. On raising the pH the red colour started to fade at pH 7-8.

[10] = b) manganic citrate solution only
[11] = c) ferric citrate solution only

Question: For O=C([O-])CC(NCc1ccccc1[O-])C(CC(=O)[O-])NCc1ccccc1[O-].[Mn+3] (stereo not drawn) [Example 4], which “stability to hydrolysis of manganic chelate of reduced chelant” value [1] is on record?
Answer: Its value is “very unstable to hydrolysis”.

Question: And the “result on generating the manganic chelate” value ([1]; final pH of 8)?
Answer: The value was “immediate dark precipitate”.

Question: And the manganese dioxide precipitation ([1]; neutral pH)?
Answer: The manganese dioxide precipitation was “started to precipitate immediately”.

Question: What does the source list for O=C(O)CC(N=Cc1ccccc1O)C(CC(=O)O)N=Cc1ccccc1O (stereo not drawn) [Example 1]?
Answer: stability of the yellow colour ([2]; a) manganic citrate + ferric citrate solutions): stable for weeks; colour developed ([2]; a) manganic citrate + ferric citrate solutions (0.01 mmole each)): yellow ochre colour; stability of the yellow colour [2, 10]: stable for weeks; colour developed [2, 10]: yellow ochre colour; time until solution turned completely red [2, 11]: about one hour; colour developed [2, 11]: red colour; selectivity between ferric and manganic ions ([2]; near neutral pH, yellow colour stable for at least several weeks): remarkable preference for manganic ion

Question: Which “pKa for hydrolysis of ferric chelate” value ([3]; ferric chelate) does the source give for O=C(O)C(NCCNC(C(=O)O)c1ccccc1O)c1ccccc1O (stereo not drawn) [EDDHA, ethylenediamine-di-2-hydroxyphenylacetic acid] here?
Answer: Its value is 12.7.

Question: Which “soluble manganese retained, of its original content” value ([4]; after 19 days with soil of low manganese, high iron content) does the source give for O=C([O-])CC(N=Cc1ccccc1[O-])C(CC(=O)[O-])N=Cc1ccccc1[O-].[Mn+3] (stereo not drawn) [Example 2] here?
Answer: Its value is “about 50%”.

Question: What about the “time to visible colour change of centrifuged sample to orange yellow” value ([4]; soil test) of the same molecule?
Answer: The value was “after a week”.

Question: And the “manganese content in the liquid phase” value ([5]; calcium carbonate suspension, pH 8.5, remained constant for several weeks)?
Answer: Its value is 30 ppm.

Question: And the “colour of liquid phase” value ([5]; calcium carbonate suspension, pH 8.5, several weeks)?
Answer: The value was “remained the same yellow ochre”.

Question: What about the “solubility in shaking test with calcium carbonate” value ([5]; for at least several weeks) of the same molecule?
Answer: The value was “completely soluble”.

Question: And the hydrolytic stability ([5]; pH 8.5 in the presence of calcium)?
Answer: The hydrolytic stability was “excellent hydrolytic stability”.

Question: And the “pH up to which the manganic chelate forms stable solutions / is stable to hydrolysis” value ([6]; manganic chelate)?
Answer: Its value is “at least 10.5”.

Question: What about the “appearance of manganic chelate solution” value ([6]; pH 8, after 1 h) of the same molecule?
Answer: Its value is “clear,”.

Question: What about the “appearance of manganic chelate solution” value ([6]; pH 8, after 24 hours) of the same molecule?
Answer: The value was “clear, same colour”.

Question: What about the “appearance of manganic chelate solution” value ([6]; pH 8, after 5 days) of the same molecule?
Answer: The value was “clear,”.

Question: What about the “appearance of manganic chelate solution” value ([6]; pH 8, immediately) of the same molecule?
Answer: The value was “clear ochre”.

Question: What about the “appearance of manganic chelate solution” value ([6]; pH 9, after 1 h) of the same molecule?
Answer: The value was “clear,”.

Question: What about the “appearance of manganic chelate solution” value ([6]; pH 9, after 24 hours) of the same molecule?
Answer: Its value is “clear, same colour”.

Question: What about the “appearance of manganic chelate solution” value ([6]; pH 9, after 5 days) of the same molecule?
Answer: Its value is “clear,”.

Question: What about the “appearance of manganic chelate solution” value ([6]; pH 9, immediately) of the same molecule?
Answer: Its value is “clear, same colour”.

Question: What about the “appearance of manganic chelate solution” value ([6]; pH 10.5, after 1 h) of the same molecule?
Answer: Its value is “clear,”.

Question: What about the “appearance of manganic chelate solution” value ([6]; pH 10.5, after 24 hours) of the same molecule?
Answer: The value was “clear, same colour”.

Question: And the “appearance of manganic chelate solution” value ([6]; pH 10.5, after 5 days)?
Answer: The value was “clear,”.

Question: And the “appearance of manganic chelate solution” value ([6]; pH 10.5, immediately)?
Answer: The value was “clear, same colour”.

Question: What about the “appearance of manganic chelate solution” value ([6]; pH 11, after 1 h) of the same molecule?
Answer: The value was “clear,”.

Question: What about the “appearance of manganic chelate solution” value ([6]; pH 11, after 24 hours) of the same molecule?
Answer: The value was “slight precipitate”.

Question: And the “appearance of manganic chelate solution” value ([6]; pH 11, after 5 days)?
Answer: Its value is “slight”.

Question: And the “appearance of manganic chelate solution” value ([6]; pH 11, immediately)?
Answer: Its value is “clear, same colour”.

Question: What about the “appearance of manganic chelate solution” value ([6]; pH 11.3, after 1 h) of the same molecule?
Answer: Its value is “precipitation”.

Question: And the “appearance of manganic chelate solution” value ([6]; pH 11.3, after 24 hours)?
Answer: The value was “considerable dark”.

Question: And the “appearance of manganic chelate solution” value ([6]; pH 11.3, after 5 days)?
Answer: Its value is “as before”.

Question: What about the “appearance of manganic chelate solution” value ([6]; pH 11.3, immediately) of the same molecule?
Answer: The value was “clear, same colour”.

Question: Which “pH at which the ferric chelate starts to hydrolyse” value [7] does the source give for O=C([O-])CC(N=Cc1ccccc1[O-])C(CC(=O)[O-])N=Cc1ccccc1[O-].[Fe+3] (stereo not drawn) [Example 5] here?
Answer: The value was 9.

Question: What about the “Appearance of ferric chelate solution” value ([7]; pH 7) of the same molecule?
Answer: Its value is “Wine red”.

Question: And the “Appearance of ferric chelate solution” value ([7]; pH 8)?
Answer: Its value is “Wine red”.

Question: And the “Appearance of ferric chelate solution” value ([7]; pH 9)?
Answer: Its value is “Slightly lighter wine red”.

Question: And the “Appearance of ferric chelate solution” value ([7]; pH 10)?
Answer: The value was “Lighter wine red”.

Question: What about the “Appearance of ferric chelate solution” value ([7]; pH 11) of the same molecule?
Answer: Its value is “Much lighter wine red”.

Question: Which results are given for O=C(O)C(NCCNC(C(=O)O)c1ccccc1O)c1ccccc1O.[Mn+3] (stereo not drawn) [manganic EDDHA, reference compound]?
Answer: time to colour change of centrifuged sample from brownish to red (manganese replaced by ferric iron) ([4]; soil test): ≤ 1 days; pKa for hydrolysis of manganic chelate ([3]; manganic chelate): 9.3

Question: For O=C(O)CC(N=c1cccccc1O)C(CC(=O)O)N=c1cccccc1O (stereo not drawn) [Example 9], which “colour with molar equivalents of both manganic and ferric ions (indicating preference for manganic ions)” value [8] is on record?
Answer: The value was “stable brown colour”.

Question: And the “pH at which the red colour started to fade” value ([9]; ferric chelate, on raising the pH)?
Answer: The value was 7-8.

Question: And the “appearance with ferric iron ions” value ([9]; ferric chelate, pH 5)?
Answer: The value was “red solution”.

Question: What about the “appearance with ferric iron ions” value ([9]; ferric chelate, pH 10) of the same molecule?
Answer: Its value is “turned yellow, with precipitation of the ferric hydroxide”.

Question: And the “stability of manganic chelate solution (brown)” value ([9]; manganic chelate, pH 10)?
Answer: The value was “stable”.
